Assay results taken from US8063088B2 (Hoffmann-La Roche Inc., priority 2008, dated 2011).

Columns and labels:
human LXR alpha = biological target: T1, human LXR alpha (Homo sapiens, UniProt Q13133); test: Radioligand binding assay (SPA), LXR alpha LBD; details: radioligand displacement, LXRα-LBD on SPA beads; read-out: LXRalpha Binding IC50
T1 construct: human LXR alpha (aa 164 to 447); unspecified tag ('tagged versions'); made in house; host or cells: E. coli BL21 (pLysS)
T1 sequence (Q13133 164-447): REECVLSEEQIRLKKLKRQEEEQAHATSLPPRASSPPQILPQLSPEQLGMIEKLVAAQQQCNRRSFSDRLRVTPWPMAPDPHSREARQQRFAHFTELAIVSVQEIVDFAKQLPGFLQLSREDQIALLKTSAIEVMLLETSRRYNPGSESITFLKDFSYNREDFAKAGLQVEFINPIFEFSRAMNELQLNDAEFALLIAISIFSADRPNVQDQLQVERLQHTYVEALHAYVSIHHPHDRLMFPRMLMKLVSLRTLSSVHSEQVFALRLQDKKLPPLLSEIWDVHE
Procedure: (§1) The following tests were carried out in order to determine the activity of the compounds of the present invention. Background information on the performed assays can be found in: Nichols J S et al. “Development of a scintillation proximity assay for peroxisome proliferator-activated receptor gamma ligand binding domain”, Anal Biochem. 1998, 257: 112-119.
(§2) Mammalian expression vectors were constructed to express full-length human LXR alpha and LXR beta. Bacterial expression vectors were constructed to produce tagged versions of the ligand binding domains (LBD) of human LXR alpha (aa 164 to 447) and human LXR beta (aa 155 to 460). To accomplish this, the portions of the sequences encoding the LBDs were amplified from the full-length clones by PCR and then subcloned into the plasmid vectors. Final clones were verified by DNA sequence analysis (Willy et al., Genes Dev. 1995, 9:1033-45; Song et al., Proc Natl Acad Sci USA. 1994, 91:10809-13).
(§3) Induction, expression, and purification of LBD proteins were performed in E. coli strain BL21 (pLysS) cells by standard methods (Ref: Current Protocols in Molecular Biology, Wiley Press, edited by Ausubel et al).
(§4) Radioligand Binding Assay
(§5) LXR alpha and LXR beta receptor binding were assayed in buffer consisting of 50 mM HEPES, pH 7.4, 10 mM NaCl, 5 mM MgCl2. For each 96-well reaction, 500 ng of LXRα-LBD or 700 ng of LXR beta-LBD proteins were bound to 80 μg or 40 μg SPA beads respectively, in a final volume of 50 μl by shaking. The resulting slurry was incubated for 1 h at RT and centrifuged for 2 min at 1300×g. The supernatant containing unbound protein was removed, and the semi-dry pellet containing the receptor-coated beads was re-suspended in 50 μl of buffer. Radioligand (eg. 100,000 dpm of (N-(2,2,2-trifluoroethyl)-N-[4-(2,2,2-trifluoro-1-hydroxy-1-trifluoromethylethyl)-phenyl]-benzenesulfonamide)) was added, and the reaction incubated at RT for 1 h in the presence of test compounds, and then scintillation proximity counting was performed. All binding assays were performed in 96-well plates and the amount of bound ligand was measured on a Packard TopCount using OptiPlates (Packard). Dose response curves were measured within a range of concentration from 10^−10 M to 10^−4 M.

human LXR beta = biological target: T2, human LXR beta (Homo sapiens, UniProt P55055); test: Radioligand binding assay (SPA), LXR beta LBD; details: radioligand displacement, LXR beta-LBD on SPA beads; read-out: LXRbeta Binding IC50
T2 construct: human LXR beta (aa 155 to 460); unspecified tag ('tagged versions'); made in house; host or cells: E. coli BL21 (pLysS)
T2 sequence (P55055 155-460): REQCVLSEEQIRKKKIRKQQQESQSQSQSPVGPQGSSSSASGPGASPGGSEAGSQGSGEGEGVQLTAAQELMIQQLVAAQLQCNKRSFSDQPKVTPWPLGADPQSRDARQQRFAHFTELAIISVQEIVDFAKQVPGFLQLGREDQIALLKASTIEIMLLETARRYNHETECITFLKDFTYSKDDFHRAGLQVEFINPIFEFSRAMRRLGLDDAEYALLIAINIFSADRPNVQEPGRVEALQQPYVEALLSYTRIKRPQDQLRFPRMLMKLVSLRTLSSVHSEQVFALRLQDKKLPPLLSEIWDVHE
Procedure: as §1, §2, §3, §4, §5

Compound	IC50 (human LXR alpha) [nM]	IC50 (human LXR beta) [nM]
CC(C)N1C(=O)N(S(=O)(=O)C(C)C)CC1c1cccc(-c2cccc(S(C)(=O)=O)c2)c1 (centres unmarked) [Example 13, 3-Isopropyl-4-(3′-methanesulfonyl-biphenyl-3-yl)-1-(propane-2-sulfonyl)-imidazolidin-2-one]	2490	36
CC(C)N1C(=O)N(S(=O)(=O)c2ccccc2F)CC1c1cccc(-c2cccc(S(C)(=O)=O)c2)c1 (centres unmarked) [Example 14, 1-(2-Fluoro-benzenesulfonyl)-3-isopropyl-4-(3′-methanesulfonyl-biphenyl-3-yl)-imidazolidin-2-one]	10	6
Cc1oncc1S(=O)(=O)N1CC(c2cccc(-c3cccc(S(C)(=O)=O)c3)c2)N(C(C)C)C1=O (centres unmarked) [Example 15, 3-Isopropyl-4-(3′-methanesulfonyl-biphenyl-3-yl)-1-(5-methyl-isoxazole-4-sulfonyl)-imidazolidin-2-one]	2580	160
CS(=O)(=O)c1cc(-c2cccc(C3CN(S(=O)(=O)c4ccccc4)C(=O)N3c3ccccc3)c2)ccc1CO (centres unmarked) [Example 16, 1-Benzenesulfonyl-4-(4′-hydroxymethyl-3′-methanesulfonyl-biphenyl-3-yl)-3-phenyl-imidazolidin-2-one]	475	29
CC(C)N1C(=O)N(S(C)(=O)=O)CC1c1cccc(-c2cccc(S(C)(=O)=O)c2)c1 (centres unmarked) [Example 17, 3-Isopropyl-1-methanesulfonyl-4-(3′-methanesulfonyl-biphenyl-3-yl)-imidazolidin-2-one]	52800	2730
CCS(=O)(=O)N1CC(c2cccc(-c3cccc(S(C)(=O)=O)c3)c2)N(C(C)C)C1=O (centres unmarked) [Example 18, 1-Ethanesulfonyl-3-isopropyl-4-(3′-methanesulfonyl-biphenyl-3-yl)-imidazolidin-2-one]	5010	106
CS(=O)(=O)c1cc(-c2ccc(C3CN(S(=O)(=O)c4ccccc4)C(=O)N3c3ccccc3)cc2)ccc1CO (centres unmarked) [Example 19, 1-Benzenesulfonyl-4-(4′-hydroxymethyl-3′-methanesulfonyl-biphenyl-4-yl)-3-phenyl-imidazolidin-2-one]	45	18
CC(C)N1C(=O)N(S(=O)(=O)c2ccccc2)CC1c1cccc(-c2ccc(CO)c(S(C)(=O)=O)c2)c1 (centres unmarked) [Example 20, 1-Benzenesulfonyl-4-(4′-hydroxymethyl-3′-methanesulfonyl-biphenyl-3-yl)-3-isopropyl-imidazolidin-2-one]	6	1
CC(C)N1C(=O)N(S(=O)(=O)c2ccccc2)CC1c1cccc(-c2cccc([N+](=O)[O-])c2)c1 (centres unmarked) [Example 21, 1-Benzenesulfonyl-3-isopropyl-4-(3′-nitro-biphenyl-3-yl)-imidazolidin-2-one]	2910	155
Cc1ccc(F)cc1-c1cccc(C2CN(S(=O)(=O)c3ccccc3)C(=O)N2C(C)C)c1 (centres unmarked) [Example 22, 1-Benzenesulfonyl-4-(5′-fluoro-2′-methyl-biphenyl-3-yl)-3-isopropyl-imidazolidin-2-one]	4700	1360
CC(C)N1C(=O)N(S(=O)(=O)c2ccccc2)CC1c1cccc(-c2cncc(S(C)(=O)=O)c2)c1 (centres unmarked) [Example 23, 1-Benzenesulfonyl-3-isopropyl-4-[3-(5-methanesulfonyl-pyridin-3-yl)-phenyl]-imidazolidin-2-one]	2790	25
CC(C)N1C(=O)N(S(=O)(=O)c2ccccc2)CC1c1cccc(-c2cccc(S(N)(=O)=O)c2)c1 (centres unmarked) [Example 24, 3′-(1-Benzenesulfonyl-3-isopropyl-2-oxo-imidazolidin-4-yl)-biphenyl-3-sulfonic acid amide]	48	1
CC(C)N1C(=O)N(S(=O)(=O)c2ccccc2)CC1c1cccc(-c2cc(F)ccc2Cl)c1 (centres unmarked) [Example 25, 1-Benzenesulfonyl-4-(2′-coro-5′-fluoro-biphenyl-3-yl)-3-isopropyl-imidazolidin-2-one]	2030	265
